According to US9591848B2, “Biofilm resistant polymer materials” (Abilene Christian Univ., priority 2008, dated 2017):
Entries after “also recorded” stand apart in the source; their conditions may differ.

Key:
[1] = tested on: E. coli; test: Biofilm resistance of UV-cured coatings after E. coli growth and staining; format: cell-based; settings: for biofilm resistance (lack of blue coloring): 15 and 20 weight % monomer in the coating; for biofilm formation: 15 and 20 weight percent monomer, increased E. coli broth concentration, approaching 10^9 cells/mL
Description: Materials and methods were the same as disclosed in the Examples 1 and 2, above, except that the polymers were not adhered to steel, but to 24-well, plastic (i.e., poly(styrene)) culture plates.
The coatings were applied to and UV-cured onto four uncoated 24-well plastic plates to a calculated thickness of two mils. The monomers of the compositions were phenyl acrylate (PA) as the non-biofilm resistant control monomer, 3-chlorophenyl acrylate (CPA), 2,4-dichlorophenyl acrylate (DCPA), 4-bromophenyl acrylate (BPA) and 2,4-dibromophenyl acrylate (DBPA).
The coatings were cured with the curing apparatus and sterilized with 95% ethanol. E. coli was grown in a LB agar broth and added to the cell plates with sterile, deionized water at four concentrations, one concentration per plate. The plates were incubated for twenty-four hours at 37° C. The E. coli was then rinsed from the plates with sterile, deionized water and sprayed with the cytology fixative [poly(ethylene glycol)-based]. After the fixative was air dried it was soaked with 95% ethanol for ten minutes for further sterilization. The plates were then rinsed with sterile, deionized water and four drops of Hema-diff solution were added for four seconds.

[2] = Roughness of cured coatings by atomic force microscopy (Sy, peak to valley distance); format: physicochemical; settings: 5, 10, 15 and 20 weight percent monomer in the coating; FIGS. 1 and 2
Description: To determine the roughness of the cured formulations, polymers consisting of each of five monomers were tested using atomic force microscopy (AFM) scanning and applying the non-contact mode dragging of the cantilever. Each of the polymers consisting of the monomers: phenyl acrylate (PA), 3-chlorophenyl acrylate (CPA), 2,4-dichlorophenyl acrylate (DCPA), 4-bromophenyl acrylate (BPA) and 2,4-dibromophenyl acrylate (DBPA) were tested at 5, 10, 15 and 20 percent of the monomer by weight (the “Coating Level”).
Each scanning location was approximately an 80 μm×80 μm area (6400 μm^2). To eliminate the effects of interference on the roughness measurements, two scans were taken at each location in the X and Y direction. These two roughness calculations were averaged to yield the roughness calculation for each location. Three locations were selected for each plate and then the average roughness was calculated for all three locations in order to minimize statistical variance yielding an overall plate roughness average, Sa as determined via Equation 1.
[formula] […] The following equation was used to determine the average peak to valley distance, Sy value, (Equation 2) for each composition at each coating level. Sy=Speak−Svalley Equation 2 The Sy value is the value typically used in the industry to determine the propensity for biofilm resistance of a smooth surface.

| SMILES | biofilm resistance (lack of blue coloring) ([1]; FIG. 4) | biofilm formation [1] | smoothness of the coating (Sy) [2] | bacterial growth on the coating (blue tinting) ([1]; coating containing the internal control monomer, 24 h at 37° C., FIG. 4) | biofilm inhibitory activity ([1]; monomer without halogens, used as internal standard or control) |
| --- | --- | --- | --- | --- | --- |
| C=CC(=O)Oc1cccc(Cl)c1 [CPA, 3-chlorophenyl acrylate] | excellent biofilm resistance | no evidence of biofilm formation |  |  |  |
| C=CC(=O)Oc1ccc(Br)cc1Br [DBPA, 2,4-dibromophenyl acrylate] | excellent biofilm resistance | no evidence of biofilm formation |  |  |  |
| C=CC(=O)Oc1ccc(Cl)cc1Cl [DCPA, 2,4-dichlorophenyl acrylate] | excellent biofilm resistance | no evidence of biofilm formation |  |  |  |
| C=CC(=O)Oc1ccccc1 [PA, phenyl acrylate, reference compound] |  |  | did not enhance the smoothness | bacterial growth | no biofilm inhibitory activity; also recorded: biologically inactive |
